The record followed here is patent US6583127B1, “Use of etherlysophospholipids as antiinflammatory agents” (Inkeysa. SA, priority 1998, dated 2003).

For assay [1], the system named is bentonite-induced skin edema in mice. As to the kind of experiment: Bentonite-induced skin edema in mice. The settings on record: for Area (area below the curve of difference between right and left pad diameter) / Inhibition of the inflammatory process: mice; for Inhibition of the inflammatory process: versus inflamed control. It counts as in vivo. From the text: Mice were individually identified with an ear code and were kept in groups of 6 per cage (Makrolon: 47.6×22.7×14.5 cm). Each cage was individually labelled with the n^o. of the study, type of treatment, doses used and route of administration, as well as the name of the director of the study, number and gender of contained animals, date of arrival and of the beginning of the experiment.
The animals had free access to mouse standard chow (UAR A04C; Usine d'Alimentation Rationelle, 91360-Villemoisson sur Orge, Francia; lot nos. 70520 and 70722). Drinking water access was ad libitum. The water, supplied by the Compañia de Aguas de Sabadell, S.A., is routinely analysed for the presence of possible contaminants. The temperature in the animal rooms was 22±3° C., with sporadic peaks of 26° C.; air humidity was 60±10%, with sporadic peaks of 80%. Daily light (between 7:00 h and 19:00 h) and dark phases were installed automatically.
Upon arrival, all animals were allowed to rest in the facilities for 8 days before use in the experiment. Table 2 indicates the six random groups of 10 mice each were set for experimentation.
The diameter of both hind pads of all mice was measured at day 0 and set as the basal value. Edema was then induced by injecting s.c. 13.3 mg/ml bentonite in 0.03 ml PBS into the right food pad. The corresponding mice were given daily the different compounds orally for 21 days. The inflamed control group was given 0.2 ml PBS only. The diameter of hind pads, as well as the body weight, was then measured every other day.
In each experimental group the average value, the standard deviation (SD) and the standard error was determined for the two parameters studied (hind pad diameter and body weight). The factor variance analysis (FVA) was used to compare the values obtained in the different groups. Where statistically significant differences were observed, the Duncan-Kramer test for a p<0.05 was applied.
The area below the curves corresponding to the diameters of the right and left pads was calculated and the evolution of the difference between them were plotted (FIGS. 7 and 8). The anti-inflammatory capacity of the different substances was evaluated as the extent of inhibition of the inflammatory process that was calculated with the formula [formula]
where C is the area below the inflammed control group and T the area below the different treatment groups.

Assay [2] can be described thus: Body weight evaluation in the TNB colitis rat model. Particulars: Wistar rat, 2.5 mg/Kg p.o.; Mean ± SEM. In kind it is in vivo. The protocol: (§1) The therapeutic potential for the treatment of ulcerative colitis of IEC01 at 2.5 and 5 mg/kg and IES01 at 2.5 mg/kg, was evaluated after their administration by oral route during 14 days (7 days of preventive treatment and 7 days of therapeutic treatment) using the rat model of experimental colitis induced by TNB (2,4,6-trinitrobenzenesulphonic acid). As reference parameters, the body weight, wet colon weight and score macroscopic evaluation were evaluated after 24 hours and after 7 days of the intraluminal administration of TNB in the colon.

For assay [3], the system named is experimental colitis induced by TNB (2,4,6-trinitrobenzenesulphonic acid). As to the kind of experiment: Rat model of experimental colitis induced by TNB, macroscopic evaluation. The settings on record: Wistar rat, 2.5 mg/Kg p.o.; for Wet Weight (colon) / Sample 2 × 6 mm / Score (0-10) / Weight/mm: Mean ± SEM. It counts as in vivo. Further details: Wet Weight (colon): unit not given beside the values. The method, then: as §1, with “colon. […] The inflammatory response is recognised by the presence of ulcerative fissures, faecal shatters and inflammation of bowel wall. A chronic inflammatory response was observed 7 days after the administration. An erratic response with lineal or punctual ulcers, necrosis, faecal shatters, reduction of colonic lumen, granulomas and peritoneal adherence was observed.” for “colon.”

For assay [4], the system named is PGE2 production in murine fibroblasts 3T3. As to the kind of experiment: PGE2 measurement in 3T3 cells (enzyme immunoassay). It counts as cell-based, Mouse. Particulars: for pg PGE2 (intracellular): 3T3 cells, 20 min at 37° C., Control 112 ± 21. The protocol:
Cell culture. Human promyelocytic HL-60 cells and promonocytic U937 cells were grown in RPMI-1640 culture medium supplemented with 10% (v/v) heat-inactivated fetal calf serum, 2 mM L-glutamine, 100 units/ml penicillin and 24 μg/ml gentamicin. Mouse 3T3 fibroblasts were grown in Dulbecco's modified Eagle's medium (DMEM) supplemented with 10% (v/v) heat-inactivated fetal calf serum, 2 mM L-glutamine, 100 units/ml penicillin and 24 μg/ml gentamicin. Cells were incubated at 37° C. in a humidified atmosphere at 5% CO2 and 95% air.
Prostaglandin E2 (PGE2) measurement. 3T3 cells (1.5×10^5 in 100 μl in complete DMEM culture medium) were incubated overnight at 37° C. (5% CO2) in 96-well microtitre plates (tissue-culture grade). Then, the distinct agents were added in 100 μl complete DMEM culture medium for 20 min at 37° C. After washing thoroughly the cells with PBS, cells were lysed and intracellular PGE2 was measured using an enzyme immunoassay kit (Amersham Pharmacia Biotech, Buckinghamshire, UK) following the manufacturer's instructions. Data obtained in duplicate measurements were converted into actual amounts of PGE2 using a calibration curve run in parallel with defined amounts of PGE2.

Assay [5] has as its system PGE2 synthesis in human mucosal gastric biopsies. As to the kind of experiment: Ex vivo PGE2 synthesis in human mucosal gastric biopsies. Particulars: human mucosal gastric biopsies, agents 10 μM, 20 min at 37° C.; Control 115 ± 26; mean ± S.D., three experiments. The protocol:
The ability of the gastric mucosa to generate prostaglandins estimates total cyclooxygenase (COX) activity (COX-1 plus any COX-2). To measure ex vivo prostaglandin E2 (PGE2) synthesis, normal gastric mucosal biopsies were immediately placed in Ependorff tubes containing phosphate-buffered saline (PBS). […] Each mucosal gastric biopsy was cut into different pieces (about 1 mg weight) that were subsequently weighed and incubated in the absence or in the presence of the distinct agents indicated in the corresponding Table for 20 min at 37° C. in 200 μl Hepes-glucose buffer. Then cells were mucosal gastric samples were pelleted by centrifugation, lysed and intracellular PGE2 was measured using an enzyme immunoassay kit (Amersham Pharmacia Biotech, Buckinghamshire, UK) following the manufacturer's instructions. Prostaglandin synthesis is expressed as picograms of PGE2 synthesised per mg of tissue incubation. Each experiment corresponded to the use of one biopsy, in order to avoid variability among different biopsies. Normal volunteers without a previous pharmacological treatment were selected for these assays. The normal gastroduodenal mucosa was visually assessed by endoscopy.
Human mucosal gastric biopsies were cut into about 1 mg pieces, incubated with the indicted agents (10 μM) for 20 min at 37° C. in Hepes-glucose buffer, and then the intracellular content of PGE2 was determined as described in the Methods section. Untreated control samples were run in parallel. Data are shown as mean Values+S.D. from three independent experiments.

The test system of assay [6] is CD43. As to the kind of experiment: Cell surface expression of CD43 in human neutrophils (immunofluorescence flow cytometry). In kind it is cell-based. Particulars: 10 ng/ml, Medium = 100. From the text:
(§2) Isolation and treatment of neutrophils.
(§3) Monoclonal antibodies. […] The antibodies are commercially available.
(§4) Immunofluorescence flow cytometry. […] Results were expressed as relative MFI (rMFI), such that
(§5) rMFI=(MFIagent×100)/MFImedium
(§6) Background fluorescence was substracted from all values.

Assay [7] relates to CD44. The assay can be described thus: Cell surface expression of CD44 in human neutrophils (immunofluorescence flow cytometry). In kind it is cell-based. Particulars: 10 ng/ml, Medium = 100.
From the text: as §2, §3, §4, §5, §6
(In flow cytometry, cells or beads pass a laser one at a time.)

For assay [8], the system named is CD11a. The assay can be described thus: Cell surface expression of CD11a in human neutrophils (immunofluorescence flow cytometry). It counts as cell-based. Particulars: 10 ng/ml, Medium = 100.
From the text: as §2, §3, §4, §5, §6

The test system of assay [9] is CD11b. The assay can be described thus: Cell surface expression of CD11b in human neutrophils (immunofluorescence flow cytometry). In kind it is cell-based. The settings on record: 10 ng/ml, rMFI=(MFIagent×100)/MFImedium, Medium = 100.
From the text: as §2, §3, §4, §5, §6

Assay [10] deals with L-selectin (CD62L). The assay can be described thus: Cell surface expression of L-selectin in human neutrophils (immunofluorescence flow cytometry). The settings on record: human neutrophils, 10 ng/ml; Medium = 100. It counts as cell-based.
From the text: as §2, §3, §4, §5, §6

For assay [11], the system named is HLA. The settings on record: human neutrophils, 10 ng/ml; Medium = 100. The method, then:
Isolation and treatment of neutrophils. Human neutrophils were obtained from fresh peripheral blood by dextran sedimentation and centrifugation on Ficoll-Hypaque followed by hypotonic lysis of residual erythrocytes. […] Cells were resuspended at 3×10^6 neutrophils/ml in HEPES/glucose buffer (150 mM NaCl, 5 mM KCl, 10 mM HEPES, 1.2 mM MgCl2, 1.3 mM CaCl2, 5.5 mM glucose, pH 7.5), and incubated in the absence or presence of distinct agents at 37° C. for the times indicated in the respective legends to figures. Subsequently, cells were pelleted by centrifugation and saved to determine the content of different cell surface antigens by flow cytometry.
Monoclonal antibodies. The following monoclonal antibodies were used: TS1/11 anti-CD11a, Bear-1 anti-CD11b, TP1/36.1 anti-CD43, HP2/9 anti-CD44, Leu-8 anti-L-selectin, and W6/32, specific for a monomorphic determinant on HLA-A, B molecules. P3X63 myeloma culture supernatant was used as a negative control. The antibodies are commercially available.
Immunofluorescence flow cytometry. Immunofluorescence flow cytometry analysis was performed in a FACStar-Plus and a FACScan flow cytometers (Becton-Dickinson). Neutrophils were incubated at 4° C. with the corresponding monoclonal antibody followed by washing and labelling with a fluorescein isothiocyanate (FITC)-labelled-goat anti-mouse IgG antibody (DAKO, Glostrup, Denmark). Mean fluorescence intensity (MFI) in linear scale was obtained from at least 7000 cells in each sample, and the fluorescence produced by the myeloma P3X63 supernatant was considered as background. Results were expressed as relative MFI (rMFI), such that
as §5, §6

Where [12] appears, read: 2.5 mg/kg orally daily for 21 days.
Where [13] appears, read: 5 mg/kg orally daily for 21 days.
Setting [14] is: after 24 hours of intraluminal administration.
Where [15] appears, read: after 7 days of intraluminal administration.

Regarding `CCCCCCCCCCCCCCCCOCC(COP(=O)(O)OCC(N)C(=O)O)OC` (stereo not shown) [IES01], the “times more efficient in inhibiting inflammation than indomethacin, at the molecular level” value in assay [1] (2.5 mg/kg versus indomethacin 2 mg/kg, taking molecular weights into account) came to 3.8 times. Besides, in [1] (setting [12]), the “Area (area below the curve of difference between right and left pad diameter)” value worked out at 4.4 ± 0.63 A.U; the “Inhibition of the inflammatory process” value is reported as 43.8%. Further, in [1] (setting [13]), the “Area (area below the curve of difference between right and left pad diameter)” value came out at 5.6 ± 0.70 A.U; the “Inhibition of the inflammatory process” value was determined as 28.3%. In [2], the “Body weight DAY 1” value is recorded as 232.3 ± 2.68 g, the “Body weight DAY 2” value amounted to 234.5 ± 2.94 g, the “Body weight DAY 4” value was found to be 241.9 ± 2.40 g and the “Body weight DAY 7” value was 211.4 ± 2.48 g. Further, in [2], the “Body weight DAY 8” value is 218.8 ± 3.57 g, the “Body weight DAY 11” value came out at 244.4 ± 4.95 g, the “Body weight DAY 12” value amounted to 250.0 ± 4.72 g and the “Body weight DAY 13” value was determined as 249.8 ± 6.84 g. Moreover, the “Body weight DAY 14” value in [2] stood at 254.0 ± 8.44 g. Besides, in assay [3] (setting [14]), the “% (inhibition, Sample 2 × 6 mm)” value came to 80.2%; the “% (inhibition, Score)” value stood at 65.7%; the “% (inhibition, Weight/mm)” value amounted to 75.2%; the “% (inhibition, Wet Weight)” value turned out to be 75.3%. For the same compound, in assay [3] (setting [14]), the “Sample 2 × 6 mm” value was determined as 272.70 ± 44.43 mg, the “Score (0-10)” value is on record as 3.2 ± 0.86 and the Weight/mm was found to be 0.158 ± 0.02. Further, the “Wet Weight (colon)” value in assay [3] (after 24 hours of intraluminal administration in the colon) was 1.425 ± 0.20. Moreover, in assay [3] (setting [15]), the “% (inhibition, Sample 2 × 6 mm)” value was found to be 31.7%; the “% (inhibition, Weight/mm)” value was 11.1%; the “% (inhibition, Wet Weight)” value turned out to be 11.1%; the “Sample 2 × 6 mm” value is listed as 185.04 ± 23.18 mg. Moreover, in [3] (setting [15]), the “Score (0-10)” value amounted to 2.0 ± 0.84 and the Weight/mm was found to be 0.151 ± 0.03. Moreover, the “Wet Weight (colon)” value in assay [3] (after 7 days of intraluminal administration in the colon) was 1.365 ± 0.24. Besides, the “% (inhibition, Score)” value in assay [3] (after 7 days of intraluminal administration, 2.5 mg/kg) is 50%. The “pg PGE2 (intracellular)” value in assay [4] (10 μM) is on record as 192 ± 25 pg. The “effect on PGE2 production (in words)” value in [4] (3T3 fibroblasts, ionomycin-induced PGE2) is listed as “no significant inhibition”.

On to `C[C@H](CCC(=O)O)C[C@H](C)C[C@H](C)C(=O)/C=C(\O)[C@H](C)C[C@H](C)C/C=C/[C@@H](C)[C@@H](O)[C@@H](C)[C@@H](O)C[C@@H]1CC[C@@](C)([C@H]2CC[C@@](C)([C@@H](C)O)O2)O1` [Ionomycin, reference compound], for which the “pg PGE2/mg (weight)” value in assay [5] is 308 ± 31 pg PGE2/mg. Besides, in assay [4] (50 μM), the “pg PGE2 (intracellular)” value is given as 486 ± 38 pg.

As for `CCCCCCCCCCCCCC(=O)O[C@@H]1[C@@H](C)[C@@]2(O)[C@@H](C=C(CO)C[C@]3(O)C(=O)C(C)=C[C@@H]23)[C@@H]2C(C)(C)[C@]12OC(C)=O` [PMA, reference compound], the “CD43 cell surface expression (rMFI)” value in assay [6] was determined as 33.5 ± 9. Besides, the “CD44 cell surface expression (rMFI)” value in assay [7] is 49.5 ± 11. In addition, the “CD11a cell surface expression (rMFI)” value in [8] came to 95 ± 8. Further, the “CD11b cell surface expression (rMFI)” value in assay [9] is reported as 272 ± 22. In addition, the “L-Selectin cell surface expression (rMFI)” value in [10] came out at 38 ± 7. For the same compound, the “HLA cell surface expression (rMFI)” value in assay [11] was 96 ± 7.
